Data published in ChEMBL document CHEMBL1649066, “An imidazopiperidine series of CCR5 antagonists for the treatment of HIV: the discovery of N-{(1S)-1-(3-fluorophenyl)-3-[(3-endo)-3-(5-isobutyryl-2-methyl-4,5,6,7-tetrahydro-1H-imidazo[4,5-c]pyridin-1-yl)-8-azabicyclo[3.2.1]oct-8-yl]propyl}acetamide (PF-232798)” (J Med Chem, 2011).
Active and inactive are the calls of the source. The calls are words filed in the database; no cut-off is given here.

Key:
[1] = Intrinsic clearance in human liver microsomes assessed per mg of protein; format: ADME, Microsome
[2] = Apparent permeability from basolateral to apical side of human Caco2 cells; conditions: Caco-2
[3] = target: hERG (KCNH2) (Homo sapiens, UniProt Q12809); assay: in vitro; conditions: HEK293 cells that express human ERG, probe [3H]-dofetilide
hERG (KCNH2), sequence (Q12809 whole entry): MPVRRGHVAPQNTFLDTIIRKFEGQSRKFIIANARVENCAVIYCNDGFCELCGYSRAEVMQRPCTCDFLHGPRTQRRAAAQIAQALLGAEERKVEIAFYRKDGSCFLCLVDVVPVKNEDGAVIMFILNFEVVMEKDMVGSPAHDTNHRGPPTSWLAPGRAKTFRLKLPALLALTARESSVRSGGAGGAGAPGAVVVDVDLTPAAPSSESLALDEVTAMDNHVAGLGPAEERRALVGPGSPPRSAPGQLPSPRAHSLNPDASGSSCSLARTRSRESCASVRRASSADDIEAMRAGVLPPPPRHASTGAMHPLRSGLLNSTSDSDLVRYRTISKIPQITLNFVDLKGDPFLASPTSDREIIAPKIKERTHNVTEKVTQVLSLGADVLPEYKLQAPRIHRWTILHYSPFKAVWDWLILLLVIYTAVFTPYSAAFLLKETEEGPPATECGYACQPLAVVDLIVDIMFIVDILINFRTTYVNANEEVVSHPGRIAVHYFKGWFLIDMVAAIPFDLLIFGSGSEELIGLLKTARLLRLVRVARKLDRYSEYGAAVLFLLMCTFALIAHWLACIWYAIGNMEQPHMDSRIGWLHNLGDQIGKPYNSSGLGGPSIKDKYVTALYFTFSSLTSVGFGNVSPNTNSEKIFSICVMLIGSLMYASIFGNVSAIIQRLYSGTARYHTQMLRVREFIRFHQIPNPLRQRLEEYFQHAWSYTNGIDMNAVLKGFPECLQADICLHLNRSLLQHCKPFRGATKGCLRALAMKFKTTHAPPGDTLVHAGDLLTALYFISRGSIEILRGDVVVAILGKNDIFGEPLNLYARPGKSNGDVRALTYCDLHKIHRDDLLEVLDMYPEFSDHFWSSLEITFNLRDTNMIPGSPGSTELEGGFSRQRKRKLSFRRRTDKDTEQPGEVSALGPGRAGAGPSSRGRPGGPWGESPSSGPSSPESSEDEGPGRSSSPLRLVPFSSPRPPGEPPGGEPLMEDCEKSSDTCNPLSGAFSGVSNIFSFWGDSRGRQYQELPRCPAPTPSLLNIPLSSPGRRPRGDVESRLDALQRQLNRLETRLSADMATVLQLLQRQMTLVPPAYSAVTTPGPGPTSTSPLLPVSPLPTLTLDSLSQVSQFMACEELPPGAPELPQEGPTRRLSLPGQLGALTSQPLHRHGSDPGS
Description: Displacement of [3H]-dofetilide from human ERG expressed in HEK293 cells at 300 nM

[4] = Octanol-buffer partition coefficient, log D of the compound
[5] = Apparent permeability from apical to basolateral side of human Caco2 cells; conditions: Caco-2
[6] = target: Voltage-gated inwardly rectifying potassium channel KCNH2 (Homo sapiens, UniProt Q12809)
Voltage-gated inwardly rectifying potassium channel KCNH2, sequence (Q12809 whole entry): as above
Description: Displacement of [3H]-dofetilide from human ERG expressed in HEK293 cells

[7] = system: Human immunodeficiency virus 1; assay: Antiviral activity against maraviroc-resistant HIV1 isolate CC185 at IC90 concentration; format: functional, organism-based
[8] = system: Human immunodeficiency virus 1; assay: Antiviral activity against maraviroc-resistant HIV1 isolate CC185 at 100 times IC90 concentration; format: functional, organism-based
[9] = system: Human immunodeficiency virus 1; assay: Antiviral activity against maraviroc-resistant HIV1 isolate CC185 at 10 times IC90 concentration; format: functional, organism-based
[10] = system: Human immunodeficiency virus; assay: Antiviral activity against HIV Ba-L infected in PBMC; format: functional; conditions: Human immunodeficiency virus 1, Ba-L

IC90 [10]	Compound	microsomal CLint [1]	Papp B→A [2]	inhibition at 0.3 µM [3]	logD [4]	Papp A→B [5]	IC50 [6]	Activity [7]	Activity [8]	Activity [9]
–	COC(=O)N1CCc2nc(C)n([C@H]3C[C@H]4CC[C@@H](C3)N4CC[C@H](NC(C)=O)c3ccccc3)c2C1	18 µL/min/mg	16 ×10⁻⁶ cm/s	20%	1.5	3 ×10⁻⁶ cm/s	–	–	–	–
–	CCC(=O)N1CCc2c(nc(C)n2[C@H]2C[C@H]3CC[C@@H](C2)N3CC[C@H](NC(C)=O)c2cccc(F)c2)C1	11 µL/min/mg	13 ×10⁻⁶ cm/s	–	1.7	2 ×10⁻⁶ cm/s	5 µM	Active	Active	Active
–	COC(=O)N[C@@H](CCN1[C@@H]2CC[C@H]1C[C@@H](n1c(C)nc3c1CN(C(C)=O)CC3)C2)c1cccc(F)c1	24 µL/min/mg	23 ×10⁻⁶ cm/s	28%	1.7	6 ×10⁻⁶ cm/s	–	–	–	–
–	Cc1nc2ccccc2n1[C@H]1C[C@H]2CC[C@@H](C1)N2CC[C@H](NC(=O)C1CCOCC1)c1ccccc1	–	–	–	–	–	–	Active	Active	Active
–	CC(=O)N[C@@H](CCN1[C@@H]2CC[C@H]1C[C@@H](n1c(C)nc3c1CN(C(=O)OC(C)C)CC3)C2)c1ccccc1	44 µL/min/mg	28 ×10⁻⁶ cm/s	75%	2.7	5 ×10⁻⁶ cm/s	–	–	–	–
–	Cc1nc(C(C)C)n([C@H]2C[C@H]3CC[C@@H](C2)N3CC[C@H](NC(=O)C2CCC(F)(F)CC2)c2ccccc2)n1	–	26 ×10⁻⁶ cm/s	–	–	11 ×10⁻⁶ cm/s	4.23 µM	–	–	–
–	CC(=O)N[C@@H](CCN1[C@@H]2CC[C@H]1C[C@@H](n1c(C)nc3c1CN(C(C)=O)CC3)C2)c1ccccc1	< 7 µL/min/mg	5 ×10⁻⁶ cm/s	0%	0.6	< 1 ×10⁻⁶ cm/s	–	–	–	–
–	CC(=O)N1CC(C(=O)N[C@@H](CCN2[C@@H]3CC[C@H]2C[C@@H](n2c(C)nc4ccccc42)C3)c2ccccc2)C1	–	–	–	–	–	–	Active	Active	Active
–	COC(=O)N[C@@H](CCN1[C@@H]2CC[C@H]1C[C@@H](n1c(C)nc3c1CN(C(=O)OC)CC3)C2)c1cccc(F)c1	92 µL/min/mg	17 ×10⁻⁶ cm/s	69%	2.6	17 ×10⁻⁶ cm/s	–	–	–	–
–	CC(=O)N[C@@H](CCN1[C@@H]2CC[C@H]1C[C@@H](n1c(C)nc3c1CCN(C(C)=O)C3)C2)c1cccc(F)c1	< 8 µL/min/mg	6 ×10⁻⁶ cm/s	–	1.4	< 1 ×10⁻⁶ cm/s	–	–	–	–
–	CC(=O)N[C@@H](CCN1[C@@H]2CC[C@H]1C[C@@H](n1c(C)nc3c1CCN(c1cnccn1)C3)C2)c1cccc(F)c1	183 µL/min/mg	–	–	3	–	1 µM	–	–	–
–	CCC(=O)N1CCc2nc(C)n([C@H]3C[C@H]4CC[C@@H](C3)N4CC[C@H](NC(C)=O)c3ccccc3)c2C1	< 7 µL/min/mg	17 ×10⁻⁶ cm/s	13%	1.2	< 1 ×10⁻⁶ cm/s	–	–	–	–
–	Cc1nnc(C2CC2)n1[C@H]1C[C@H]2CC[C@@H](C1)N2CC[C@H](NC(=O)C1CCC(F)(F)CC1)c1ccccc1	–	–	–	–	–	–	inactive	inactive	inactive
–	CC(=O)N[C@@H](CCN1[C@@H]2CC[C@H]1C[C@@H](n1c(C)nc3c1CCN(C(=O)C(C)(C)C)C3)C2)c1cccc(F)c1	35 µL/min/mg	24 ×10⁻⁶ cm/s	–	2.8	1 ×10⁻⁶ cm/s	–	–	–	–
–	Cc1nnc(C(C)C)n1[C@H]1C[C@H]2CC[C@@H](C1)N2CC[C@H](NC(=O)C1CCC(F)(F)CC1)c1cccc(F)c1	–	–	–	–	–	–	inactive	inactive	inactive
–	CC(=O)N[C@@H](CCN1[C@@H]2CC[C@H]1C[C@@H](n1c(C)nc3c1CN(S(C)(=O)=O)CC3)C2)c1ccccc1	24 µL/min/mg	–	10%	0.9	–	–	–	–	–
–	CC(=O)N[C@@H](CCN1[C@@H]2CC[C@H]1C[C@@H](n1c(C)nc3ccccc31)C2)c1ccccc1	–	35 ×10⁻⁶ cm/s	–	–	13 ×10⁻⁶ cm/s	1.5 µM	–	–	–
–	CC(=O)N[C@@H](CCN1[C@@H]2CC[C@H]1C[C@@H](n1c(C)nc3c1CCN(c1ccncn1)C3)C2)c1cccc(F)c1	35 µL/min/mg	15 ×10⁻⁶ cm/s	–	2.6	4 ×10⁻⁶ cm/s	0.01 µM	–	–	–
–	COC(=O)N[C@@H](CCN1[C@@H]2CC[C@H]1C[C@@H](n1c(C)nc3c1CN(C(C)=O)CC3)C2)c1ccccc1	42 µL/min/mg	27 ×10⁻⁶ cm/s	57%	1.4	4 ×10⁻⁶ cm/s	–	–	–	–
–	CC(=O)N[C@@H](CCN1[C@@H]2CC[C@H]1C[C@@H](n1c(C)nc3c1CN(C(C)C)CC3)C2)c1ccccc1	46 µL/min/mg	–	–	0.8	–	–	–	–	–
–	CCCC(=O)N1CCc2c(nc(C)n2[C@H]2C[C@H]3CC[C@@H](C2)N3CC[C@H](NC(C)=O)c2cccc(F)c2)C1	25 µL/min/mg	26 ×10⁻⁶ cm/s	–	2.2	1 ×10⁻⁶ cm/s	–	–	–	–
–	CCCCN1C(=O)[C@@H]([C@H](O)C2CCCCC2)NC(=O)C12CCN(Cc1ccc(Oc3ccc(C(=O)O)cc3)cc1)CC2	–	–	–	–	–	–	Active	Active	Active
0.0032 µM	Cc1nnc(C(C)C)n1[C@H]1C[C@H]2CC[C@@H](C1)N2CC[C@H](NC(=O)C1CCC(F)(F)CC1)c1ccccc1 [MARAVIROC]	–	–	–	–	–	–	–	–	–
–	COC[C@@H](c1ccc(C(F)(F)F)cc1)N1CCN(C2(C)CCN(C(=O)c3c(C)ncnc3C)CC2)C[C@@H]1C	–	–	–	–	–	–	Active	Active	Active
–	CC(=O)N[C@@H](CCN1[C@@H]2CC[C@H]1C[C@@H](n1c(C)nc3c1CN(C(=O)C(C)C)CC3)C2)c1ccccc1	42 µL/min/mg	20 ×10⁻⁶ cm/s	0%	1.6	< 1 ×10⁻⁶ cm/s	–	–	–	–
–	CC(=O)N[C@@H](CCN1[C@@H]2CC[C@H]1C[C@@H](n1c(C)nc3c1CN(C)CC3)C2)c1ccccc1	< 7 µL/min/mg	9 ×10⁻⁶ cm/s	0%	0.4	< 1 ×10⁻⁶ cm/s	–	–	–	–
